Source: patent US12648927B2, “Compositions and methods of enhancing immunotherapies” (Cha Therapeutics, Inc., priority 2018, dated 2026)

Assays:
PDL-1 = PDL-1 gene expression by qRT-PCR, human MDA-MB-231 xenograft tumors; type: in vivo; settings: human tumors in immune compromised mice, 4-5 mice each group
Description: Data represented as mean±SEM.

HLA-DRB5 (MHC II) = test: IFN stimulated gene expression by qRT-PCR (HLA-DRB5), TNBC human xenograft tumors; type: in vivo; settings: single components vs combination
Protocol: It was tested in 6 treated and 5 untreated tumors. *P<0.05, **P<0.01, ***P<0.005, ****P<0.001. Data represented as mean±SEM.

SMILES | relative gene expression of PDL-1, increase (PDL-1) [fold] | HLA-DRB5 (MHC II) gene expression (HLA-DRB5 (MHC II))
Nc1ncn([C@H]2C[C@H](O)[C@@H](CO)O2)c(=O)n1 [DAC, decitabine] | 2 | no significant effect
O=C(O[C@@H]1Cc2c(O)cc(O)cc2O[C@@H]1c1cc(O)c(O)c(O)c1)c1cc(O)c(O)c(O)c1 [EGCG, epigallocatechin gallate] | – | no significant effect
